The source of these data is patent US20140128385A1 (NOVARTIS AG, priority 2011, published 2014).

In general, IC50 refers to the concentration needed to halve the response being measured. High values mean lower potency, low ones higher potency.

Structures can show the parent of a compound that is named as a salt.

This experiment addresses T1, BACE-2 (Homo sapiens, UniProt Q9Y5Z0).
T1 construct: Recombinant BACE-2 (extracellular domain, expressed in baculovirus and purified using standard methods); made in house
T1 sequence (Q9Y5Z0 63-473 limits assumed): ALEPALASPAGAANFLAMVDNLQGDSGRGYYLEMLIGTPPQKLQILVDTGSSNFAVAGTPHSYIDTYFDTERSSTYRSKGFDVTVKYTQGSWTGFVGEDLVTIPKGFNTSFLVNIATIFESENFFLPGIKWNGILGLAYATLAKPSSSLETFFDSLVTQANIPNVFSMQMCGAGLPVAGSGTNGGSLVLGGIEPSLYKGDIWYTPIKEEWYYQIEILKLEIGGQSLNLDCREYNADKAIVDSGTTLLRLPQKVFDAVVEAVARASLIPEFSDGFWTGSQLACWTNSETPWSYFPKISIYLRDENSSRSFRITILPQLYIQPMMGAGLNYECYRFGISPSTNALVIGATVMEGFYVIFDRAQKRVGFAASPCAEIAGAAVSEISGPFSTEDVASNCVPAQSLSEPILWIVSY
Nature of the experiment: assay for inhibition of BACE-2. The format is biochemical.
As to “5-Bromo-pyridine-2-carboxylic acid[3-((S)-3-amino-5-difluoromethyl-2,5,6,7-tetrahydro-[1,4]oxazepin-5-yl)-4-fluoro-phenyl]-amide hydrochloride [Example 96]”, the IC50 came to 44 nM.
In the case of `CCC1C(N)=NC(C)(c2cccc(NC(=O)c3ccc(Br)cn3)c2)C(=O)N1C` (mixture of isomers) [Example 200, 5-Bromo-pyridine-2-carboxylic acid [3-(6-amino-5-ethyl-2,4-dimethyl-3-oxo-2,3,4,5-tetrahydro-pyrazin-2-yl)-phenyl]-amide], it took 1250 nM to reach half-maximal inhibition (IC50).
As for `Cc1cc(C#N)cnc1C(=O)Nc1ccc(F)c(C2(C)COC(CF)(CF)C(N)=N2)c1` (racemic) [Example 251, 5-Cyano-3-methyl-pyridine-2-carboxylic acid [3-(5-amino-6,6-bis-fluoromethyl-3-methyl-3,6-dihydro-2H-[1,4]oxazin-3-yl)-4-fluoro-phenyl]-amide], the IC50 came out at 41 nM.
The figure for `CC1(c2cccc(NC(=O)c3ccc(Br)cn3)n2)COCC(N)=N1` (racemic) [Example 258, 5-Bromo-pyridine-2-carboxylic acid [6-(5-amino-3-methyl-3,6-dihydro-2H-[1,4]-oxazin-3-yl)-pyridin-2-yl]-amide] is 363 nM.
The figure for `C[C@@]1(c2cccc(NC(=O)c3ccc(Br)cn3)c2)CO[C@@](C)(C(F)(F)F)C(N)=N1` (relative stereo) [Example 66, 5-Bromo-pyridine-2-carboxylic acid [3-((3R*,6R*)-5-amino-3,6-dimethyl-6-trifluoromethyl-3,6-dihydro-2H-[1,4]oxazin-3-yl)-phenyl]-amide hydrochloride] is 6 nM; for `C[C@H]1OC[C@](c2cc(NC(=O)c3ccc(C#N)cn3)ccc2F)(C(F)F)N=C1N` (relative stereo) [Example 75, 5-Cyano-pyridine-2-carboxylic acid [3-((3R*,6R*)-5-amino-3-difluoromethyl-6-methyl-3,6-dihydro-2H-[1,4]oxazin-3-yl)-4-fluoro-phenyl]-amide hydrochloride] it is 355 nM.
`C[C@@H]1OC[C@](c2cc(NC(=O)c3ccc(C#N)cn3)ccc2F)(C(F)F)N=C1N` (relative stereo) [Example 76, 5-Cyano-pyridine-2-carboxylic acid [3-((3R*,6S*)-5-amino-3-difluoromethyl-6-methyl-3,6-dihydro-2H-[1,4]oxazin-3-yl)-4-fluoro-phenyl]-amide hydrochloride] gave an IC50 of 175 nM.
The figure for `C[C@H]1OC[C@](c2cc(NC(=O)c3ccc(Br)cn3)ccc2F)(C(F)F)N=C1N` (relative stereo) [Example 77, 5-Bromo-pyridine-2-carboxylic acid [3-((3R*,6R*)-5-amino-3-difluoromethyl-6-methyl-3,6-dihydro-2H-[1,4]oxazin-3-yl)-4-fluoro-phenyl]-amide hydrochloride] is 42 nM.
Compound `C[C@@H]1OC[C@](c2cc(NC(=O)c3ccc(Br)cn3)ccc2F)(C(F)F)N=C1N` (relative stereo) [Example 78, 5-Bromo-pyridine-2-carboxylic acid [3-((3R*,6S*)-5-amino-3-difluoromethyl-6-methyl-3,6-dihydro-2H-[1,4]oxazin-3-yl)-4-fluoro-phenyl]-amide hydrochloride] gave a concentration for half-maximal inhibition (IC50) of 22 nM.
In turn, `Cc1cc(OC(F)F)cnc1C(=O)Nc1ccc(F)c([C@]2(C(F)F)CNCC(N)=N2)c1` (single isomer, unassigned) [Example 212] displayed an IC50 of 116 nM.
On to `COc1cnc(C(=O)Nc2ccc(F)c([C@]3(C(F)F)CNCC(N)=N3)c2)c(N)n1` (single isomer, unassigned) [Example 213], for which the IC50 worked out at 115 nM.
Compound `Cc1cc(C#N)cnc1C(=O)Nc1ccc(F)c([C@]2(C)COC(CF)(CF)C(N)=N2)c1` (single isomer, unassigned) [Example 252] gave an IC50 of 33 nM. This IC50 is about 3.5-fold lower than that of the compound before.
For the compound `CC1(c2cccc(NC(=O)c3ccco3)c2)COCC(N)=N1` (stereo not shown) [Example 1, Furan-2-carboxylic acid [3-(5-amino-3-methyl-3,6-dihydro-2H-[1,4]oxazin-3-yl)-phenyl]-amide hydrochloride], the IC50 worked out at 61 nM. This IC50 is about 1.8-fold higher than that of the compound before.
`CC1(c2cccc(NC(=O)c3ccc(Br)cn3)c2)COCC(N)=N1` (stereo not shown) [Example 2, 5-Bromo-pyridine-2-carboxylic acid [3-(5-amino-3-methyl-3,6-dihydro-2H-[1,4]oxazin-3-yl)-phenyl]-amide hydrochloride] registered an IC50 of 87 nM.
The figure for `C[C@@]1(c2cccc(NC(=O)c3ccc(Br)cn3)c2)COCC(N)=N1` [Example 3, 5-Bromo-pyridine-2-carboxylic acid [3-((R)-5-amino-3-methyl-3,6-dihydro-2H-[1,4]oxazin-3-yl)-phenyl]-amide hydrochloride] is 56 nM.
The compound `C[C@]1(c2cccc(NC(=O)c3ccc(Br)cn3)c2)COCC(N)=N1` [Example 4, 5-Bromo-pyridine-2-carboxylic acid [3-((S)-5-amino-3-methyl-3,6-dihydro-2H-[1,4]oxazin-3-yl)-phenyl]-amide hydrochloride] returned an IC50 of over 10000 nM.
Compound `Cc1nc(C(=O)Nc2cccc(C3(C)COCC(N)=N3)c2)co1` (stereo not shown) [Example 5, 2-Methyl-oxazole-4-carboxylic acid [3-(5-amino-3-methyl-3,6-dihydro-2H-[1,4]oxazin-3-yl)-phenyl]-amide hydrochloride] showed a half-maximal inhibitory concentration (IC50) of 373 nM.
`Cc1cnc(C(=O)Nc2cccc(C3(C)COCC(N)=N3)c2)cn1` (stereo not shown) [Example 6, 5-Methyl-pyrazine-2-carboxylic acid [3-(5-amino-3-methyl-3,6-dihydro-2H-[1,4]oxazin-3-yl)-phenyl]-amide hydrochloride]: the IC50 worked out at 3440 nM.
On to `CC1(c2cccc(NC(=O)c3ncc(Br)cn3)c2)COCC(N)=N1` (stereo not shown) [Example 7, 5-Bromo-pyrimidine-2-carboxylic acid [3-(5-amino-3-methyl-3,6-dihydro-2H-[1,4]oxazin-3-yl)-phenyl]-amide hydrochloride], for which the IC50 was 309 nM.
As for `CC1(c2cccc(NC(=O)c3cn4ccccc4n3)c2)COCC(N)=N1` (stereo not shown) [Example 8, Imidazo[1,2-a]pyridine-2-carboxylic acid [3-(5-amino-3-methyl-3,6-dihydro-2H-[1,4]oxazin-3-yl)-phenyl]-amide hydrochloride], the IC50 stood at 7230 nM.
The same measure for `CC1(c2cccc(NC(=O)c3ncccc3F)c2)COCC(N)=N1` (stereo not shown) [Example 9, 3-Fluoro-pyridine-2-carboxylic acid [3-(5-amino-3-methyl-3,6-dihydro-2H-[1,4]oxazin-3-yl)-phenyl]-amide hydrochloride]: 663 nM; for `Cc1nc(C(=O)Nc2cccc(C3(C)COCC(N)=N3)c2)c(C)o1` (stereo not shown) [Example 10, 2,5-Dimethyl-oxazole-4-carboxylic acid [3-(5-amino-3-methyl-3,6-dihydro-2H-[1,4]oxazin-3-yl)-phenyl]-amide hydrochloride]: 289 nM.
In turn, `Cc1nc(C(=O)Nc2cccc(C3(C)COCC(N)=N3)c2)cs1` (stereo not shown) [Example 11, 2-Methyl-thiazole-4-carboxylic acid [3-(5-amino-3-methyl-3,6-dihydro-2H-[1,4]oxazin-3-yl)-phenyl]-amide hydrochloride] yielded an IC50 of 1060 nM.
`CC1(c2cccc(NC(=O)c3ccc(O)nn3)c2)COCC(N)=N1` (stereo not shown) [Example 12, 6-Hydroxy-pyridazine-3-carboxylic acid [3-(5-amino-3-methyl-3,6-dihydro-2H-[1,4]oxazin-3-yl)-phenyl]-amide hydrochloride]: 2260 nM corresponded to half-maximal inhibition (IC50).
The figure for `CC1(c2cccc(NC(=O)c3ccccn3)c2)COCC(N)=N1` (stereo not shown) [Example 13, Pyridine-2-carboxylic acid [3-(5-amino-3-methyl-3,6-dihydro-2H-[1,4]oxazin-3-yl)-phenyl]-amide hydrochloride] is 431 nM; for `CC1(c2cccc(NC(=O)c3ccc(C#N)cn3)c2)COCC(N)=N1` (stereo not shown) [Example 14, 5-Cyano-pyridine-2-carboxylic acid [3-(5-amino-3-methyl-3,6-dihydro-2H-[1,4]oxazin-3-yl)-phenyl]-amide hydrochloride] it is 335 nM.
For the compound `CC1(c2cccc(NC(=O)c3cnc(-n4ccc(C(F)(F)F)n4)cn3)c2)COCC(N)=N1` (stereo not shown) [Example 15, 5-(3-Trifluoromethyl-pyrazol-1-yl)-pyrazine-2-carboxylic acid [3-(5-amino-3-methyl-3,6-dihydro-2H-[1,4]oxazin-3-yl)-phenyl]-amide hydrochloride], the IC50 was determined as 6590 nM.
In turn, `CC1(c2cccc(NC(=O)c3ncc(C(F)(F)F)cc3Cl)c2)COCC(N)=N1` (stereo not shown) [Example 17, 3-Chloro-5-trifluoromethyl-pyridine-2-carboxylic acid [3-(5-amino-3-methyl-3,6-dihydro-2H-[1,4]oxazin-3-yl)-phenyl]-amide hydrochloride] showed an IC50 of 694 nM.
The figure for `COc1cnc(C(=O)Nc2cccc(C3(C)COCC(N)=N3)c2)cn1` (stereo not shown) [Example 18, 5-Methoxy-pyrazine-2-carboxylic acid [3-(5-amino-3-methyl-3,6-dihydro-2H-[1,4]oxazin-3-yl)-phenyl]-amide hydrochloride] is 1660 nM; for `CC1(c2cccc(NC(=O)c3cnc(O)cn3)c2)COCC(N)=N1` (stereo not shown) [Example 19] it is 3180 nM; for `CC1(c2cccc(NC(=O)c3cc(Br)co3)c2)COCC(N)=N1` (stereo not shown) [Example 20, 4-Bromo-furan-2-carboxylic acid [3-(5-amino-3-methyl-3,6-dihydro-2H-[1,4]oxazin-3-yl)-phenyl]-amide hydrochloride] it is 226 nM.
